According to patent publication US20110008475A1, “USE OF AN EMULSION OF MINT OIL OR OF L-CARVONE FOR THE FUNGICIDAL TREATMENT OF FRUIT, VEGETABLES OR PLANTS” (priority 2007, published 2011):

System: Peronospora brassicae (cabbage mildew)
Test: Effect of L-carvone on cabbage mildew (infected cabbages treated after inoculation)
Format: in vivo
Details: cabbages infected with Peronospora brassicae, treated rapidly after inoculation; L-carvone at a minimal concentration of 1%; 21 days; FIG. 1
Description: Cabbages were infected with Peronospora brassicae (cabbage mildew) then treated rapidly after inoculation with L-carvone or Aliette.

With `C=C(C)C1CC=C(C)C(=O)C1` [L-carvone, 2-methyl-5-(1-methylethenyl)-2-cyclohexen-1-one] the “control of the infection by cabbage mildew” value was “able to control the infection effectively for 21 days”.
